Reference: ChEMBL document CHEMBL1201862, “PubChem BioAssay data set” (2004)
The source made the active and inactive calls.

Legend:
[1] = target: Acyl-homoserine lactone acylase PvdQ (Pseudomonas aeruginosa (strain LESB58), UniProt Q9I194); test: PvdQ acylase enzyme activity blockers – biochemical, fluorescence, plate reader and imaging, cherry-picks, dose response (AID 493231)
[2] = target: T1, Neuropeptide Y receptor type 2 (Homo sapiens, UniProt P49146); test: Fluorescence-based counterscreen for agonists of NPY-Y1: cell-based high-throughput dose response assay for agonists of NPY-Y2.; format: functional
T1 sequence (P49146 whole entry): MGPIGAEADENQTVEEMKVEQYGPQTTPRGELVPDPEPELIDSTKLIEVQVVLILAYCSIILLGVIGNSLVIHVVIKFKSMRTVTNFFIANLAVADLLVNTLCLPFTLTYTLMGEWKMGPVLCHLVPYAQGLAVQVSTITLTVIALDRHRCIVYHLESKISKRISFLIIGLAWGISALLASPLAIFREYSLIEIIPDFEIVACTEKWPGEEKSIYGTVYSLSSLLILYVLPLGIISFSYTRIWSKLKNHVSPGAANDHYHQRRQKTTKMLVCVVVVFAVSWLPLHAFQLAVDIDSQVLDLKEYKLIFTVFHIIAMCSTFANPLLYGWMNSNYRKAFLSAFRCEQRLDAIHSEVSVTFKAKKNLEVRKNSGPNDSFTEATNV

HEK293 [3] = test: Fluorescence-based counterscreen for potentiators or agonists of NPY-Y1: cell-based high-throughput dose response assay for inhibitors of cyclic nucleotide gated ion channel (CNGC) activity. In this assay, the parental HEK293 cell line transfected with a cyclic-nucleotide gated ion channel (CNGC)-based cAMP sensor is used to measure inhibition of isoproterenol-induced CNGC …; format: functional; conditions: Homo sapiens
[4] = target: T2, Neuropeptide Y receptor type 1 (Homo sapiens, UniProt P25929); test: Fluorescence-based dose response cell-based high-throughput screening assay for agonists of NPY-Y1. [Related pubchem assays: 1697 (Screening assay (NPY-Y1 agonists).), 1359 (Screening assay (NPY-Y2 potentiators or agonists).), 1304 (Screening assay (NPY-Y1 potentiators or agonists).), 1704 (Screening assay (CNGC inhibitors).), 1791 (Summary AID.)]; format: functional
T2 sequence (P25929 whole entry): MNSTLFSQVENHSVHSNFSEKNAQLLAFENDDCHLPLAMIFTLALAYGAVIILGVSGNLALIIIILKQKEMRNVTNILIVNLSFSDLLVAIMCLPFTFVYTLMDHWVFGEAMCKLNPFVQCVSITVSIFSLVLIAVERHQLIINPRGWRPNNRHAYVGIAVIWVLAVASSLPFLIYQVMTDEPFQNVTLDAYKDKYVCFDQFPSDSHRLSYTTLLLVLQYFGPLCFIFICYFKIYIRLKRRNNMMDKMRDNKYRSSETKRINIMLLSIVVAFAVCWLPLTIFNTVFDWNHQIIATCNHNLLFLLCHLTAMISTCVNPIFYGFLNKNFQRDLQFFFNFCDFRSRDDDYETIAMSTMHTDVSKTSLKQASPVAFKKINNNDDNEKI

[5] = viability of uninfected HEp-2 cells – cell-based, HTS, cytotoxicity control for RSV inhibitor project, dose response (AID 2410); format: functional; conditions: human respiratory syncytial virus
HEK293 [6] = test: PMA/Ionomycin induced NF-kB luciferase assay in 293- NF-kB-Luc stable cells. [Related pubchem assays: 1299, 1270, 1295, 1375, 1287, 1281, 1293, 1291, 1289, 1280, 465, 1364, 1282, 1372, 1365, 1370, 1367, 1366, 1269, 1373, 1292, 1290, 1302, 1371, 1283, 1271, 1294, 1374, 1368, 1369 ]; format: functional, cell-based; conditions: Homo sapiens
[7] = target: Luciferin 4-monooxygenase (Photinus pyralis, UniProt P08659); test: In vitro luciferase assay using purified luciferase. [Related pubchem assays: 1299, 1270, 1295, 1375, 1287, 1281, 1293, 1291, 1289, 1280, 465, 1364, 1282, 1372, 1365, 1370, 1367, 1366, 1266, 1373, 1292, 1290, 1302, 1371, 1283, 1271, 1294, 1374, 1368, 1369 ]
HEK293 [8] = test: PMA/Ionomycin-induced IL-8 production in HEK293- NF-kB-Luc stable cells. [Related pubchem assays: 1299, 1295, 1375, 1287, 1281, 1293, 1291, 1289, 1280, 465, 1364, 1282, 1372, 1365, 1367, 1366, 1266, 1269, 1373, 1292, 1290, 1302, 1371, 1283, 1271, 1294, 1374, 1368, 1369 ]; format: functional, cell-based; conditions: Homo sapiens
HEK293 [9] = test: Cytotoxicity assay in HEK293 cells. [Related pubchem assays (depositor defined):AID1266, AID1269, AID1270, AID1271, AID1280, AID1281, AID1282, AID1283, AID1287, AID1289, AID1290, AID1291, AID1292, AID1293, AID1294, AID1295, AID1299, AID1302, AID1364, AID1365, AID1366, AID1367, AID1369, AID1370, AID1371, AID1372, AID1373, AID1374, AID1375, AID1384 …; format: functional, cell-based; conditions: Homo sapiens
HEK293 [10] = test: TNF Induced NF-kB Luciferase in 293-NF-kB-Luc Stable Cells. [Related pubchem assays: 1266, 1299, 1269, 1373, 1292, 1290, 1302, 1371, 1283, 1270, 1295, 1271, 1375, 1294, 1374, 1281, 1293, 1291, 1289, 1280, 465, 1368, 1364, 1282, 1372, 1365, 1369, 1370, 1367, 1366 ]; format: functional, cell-based; conditions: Homo sapiens
Vero [11] = test: cells; format: functional, cell-based; conditions: Chlorocebus sabaeus
Vero [12] = test: cells; format: functional; conditions: Chlorocebus sabaeus
[13] = target: Tyrosine-protein phosphatase non-receptor type 12 (Homo sapiens, UniProt Q05209); test: SAR Selectivity Analysis of small molecule inhibitors of PEST using pCAP in a fluorescence assay. [Related pubchem assays (depositor defined):AID1779, AID1784, AID2135]; format: functional
[14] = target: T3, Dual specificity protein phosphatase 3 (Homo sapiens, UniProt P51452); test: SAR VHR1 absorbance Assay for In Vitro dose response studies. [Related pubchem assays (depositor defined):AID1654, AID1661, AID1878, AID1992, AID2004]
[15] = target: T3, Dual specificity protein phosphatase 3; test: SAR VHR1 Fluorescent Assay for In Vitro dose response studies. [Related pubchem assays (depositor defined):AID1654, AID1661, AID1878, AID1992, AID2004, AID2070, AID2085]; format: functional
[16] = target: T4, Tyrosine-protein phosphatase non-receptor type 22 (Homo sapiens, UniProt Q9Y2R2); test: SAR LYP1 Fluorescent Assay using OMFP substrate for In Vitro dose response studies - Set 3. [Related pubchem assays (depositor defined):AID1779, AID1784, AID2140, AID2686]; format: functional
T4 sequence (Q9Y2R2 whole entry): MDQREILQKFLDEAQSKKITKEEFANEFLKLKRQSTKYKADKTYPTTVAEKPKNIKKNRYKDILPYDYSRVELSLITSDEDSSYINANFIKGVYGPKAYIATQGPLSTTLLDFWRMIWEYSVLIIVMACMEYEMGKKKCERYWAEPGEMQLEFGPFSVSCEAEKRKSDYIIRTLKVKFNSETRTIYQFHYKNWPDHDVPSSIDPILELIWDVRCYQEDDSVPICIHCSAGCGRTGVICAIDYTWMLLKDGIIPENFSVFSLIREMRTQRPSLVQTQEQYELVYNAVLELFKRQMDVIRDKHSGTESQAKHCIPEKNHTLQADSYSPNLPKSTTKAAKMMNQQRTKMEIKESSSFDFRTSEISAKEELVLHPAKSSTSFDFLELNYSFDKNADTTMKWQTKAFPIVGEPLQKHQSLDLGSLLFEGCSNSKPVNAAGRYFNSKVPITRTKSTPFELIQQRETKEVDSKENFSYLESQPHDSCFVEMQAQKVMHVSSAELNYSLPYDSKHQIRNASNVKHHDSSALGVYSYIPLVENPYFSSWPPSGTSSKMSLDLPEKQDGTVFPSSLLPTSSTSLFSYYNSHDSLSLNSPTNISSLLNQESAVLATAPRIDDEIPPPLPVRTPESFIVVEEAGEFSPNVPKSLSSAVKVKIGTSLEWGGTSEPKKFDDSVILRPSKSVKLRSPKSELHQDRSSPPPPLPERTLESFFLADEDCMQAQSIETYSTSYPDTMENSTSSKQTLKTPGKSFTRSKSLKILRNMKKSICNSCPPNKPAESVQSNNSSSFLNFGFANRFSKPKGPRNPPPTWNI

[17] = target: T3, Dual specificity protein phosphatase 3; test: MOA VHR1 Fluorescent secondary assay for identification of redox-state modulating compounds. [Related pubchem assays (depositor defined):AID1654, AID1661, AID1878, AID1957]
[18] = target: T5, Tyrosine-protein phosphatase non-receptor type 7 (Homo sapiens, UniProt P35236); test: redox-active compounds inhibiting HePTP phosphatase – biochemical, fluorescence, mechanism study (AID 2068); format: functional
T5 sequence (P35236 whole entry): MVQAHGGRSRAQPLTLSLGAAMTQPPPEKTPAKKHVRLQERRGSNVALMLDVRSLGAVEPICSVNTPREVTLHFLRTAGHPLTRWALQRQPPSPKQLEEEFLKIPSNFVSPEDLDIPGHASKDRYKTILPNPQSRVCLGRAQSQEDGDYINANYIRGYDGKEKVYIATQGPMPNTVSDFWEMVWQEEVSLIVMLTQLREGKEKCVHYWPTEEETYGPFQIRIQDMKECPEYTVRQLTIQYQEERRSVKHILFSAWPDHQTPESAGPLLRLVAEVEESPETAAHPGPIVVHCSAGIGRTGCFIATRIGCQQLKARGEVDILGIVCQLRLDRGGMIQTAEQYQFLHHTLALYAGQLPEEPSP

[19] = target: T5, Tyrosine-protein phosphatase non-receptor type 7; test: inhibition of hematopoietic tyrosine phosphatase HePTP – biochemical, set 2, SAR follow-up (AID 449736); format: functional
[20] = target: T4, Tyrosine-protein phosphatase non-receptor type 22; test: inhibition of lymphoid tyrosine phosphatase LYP – biochemical, pCAP fluorogenic substrate, fluorescence, set 3, SAR follow-up (AID 449727); format: functional
[21] = target: T6, Dual specificity protein phosphatase 6 (Rattus norvegicus, UniProt Q64346); format: functional;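 note: confirmatory in vitro dose-response testing of MKP-3 inhibition; recombinant His-tagged MKP-3 made in E. coli BL21 with OMFP substrate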
T6 sequence (Q64346 whole entry): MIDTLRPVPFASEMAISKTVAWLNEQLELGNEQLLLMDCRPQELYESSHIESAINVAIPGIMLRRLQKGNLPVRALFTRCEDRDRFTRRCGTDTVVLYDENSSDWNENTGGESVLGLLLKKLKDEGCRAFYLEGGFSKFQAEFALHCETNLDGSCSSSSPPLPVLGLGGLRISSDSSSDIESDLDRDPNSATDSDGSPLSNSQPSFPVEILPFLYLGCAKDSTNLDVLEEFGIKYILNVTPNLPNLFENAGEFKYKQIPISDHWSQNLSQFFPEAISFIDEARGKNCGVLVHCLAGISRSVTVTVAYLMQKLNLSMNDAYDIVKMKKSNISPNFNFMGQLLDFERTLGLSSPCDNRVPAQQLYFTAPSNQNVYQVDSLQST

[22] = target: T7, Small ubiquitin-related modifier 1 (Homo sapiens, UniProt P63165); test: SUMO1 protein interaction blockers, potency – biochemical, fluorescence polarization, uHTS hits, dose response (AID 624382); format: functional; conditions: read-out: IC50_Mean
[23] = target: T8, Low molecular weight phosphotyrosine protein phosphatase (Homo sapiens, UniProt P24666); format: functional; conditions: read-out: IC50_Mean
T8 sequence (P24666 whole entry): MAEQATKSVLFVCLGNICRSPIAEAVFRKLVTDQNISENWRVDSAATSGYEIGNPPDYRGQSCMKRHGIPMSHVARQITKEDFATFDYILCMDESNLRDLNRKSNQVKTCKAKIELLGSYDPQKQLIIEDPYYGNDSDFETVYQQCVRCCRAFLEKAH

[24] = target: T7, Small ubiquitin-related modifier 1; test: SUMO1 protein-protein binding blockers, potency – biochemical, FRET, dose response (AID 624383); format: functional; conditions: read-out: IC50_Mean
[25] = target: T8, Low molecular weight phosphotyrosine protein phosphatase; format: functional; conditions: read-out: IC50_Mean; remark: listed apart in the source
[26] = target: T4, Tyrosine-protein phosphatase non-receptor type 22; test: PTPN22 enzyme inhibitors – biochemical, fluorescence, LYP catalytic domain, selectivity assay for LMPTP inhibitor project, dose response (AID 652006); format: functional; conditions: read-out: IC50_Mean

T3 sequence (P51452 whole entry): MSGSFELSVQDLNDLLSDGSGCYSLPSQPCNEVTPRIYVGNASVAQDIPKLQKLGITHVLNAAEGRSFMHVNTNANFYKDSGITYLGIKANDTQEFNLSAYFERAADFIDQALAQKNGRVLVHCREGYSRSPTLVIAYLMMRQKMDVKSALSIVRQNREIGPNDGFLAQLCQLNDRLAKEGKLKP
T7 sequence (P63165 whole entry): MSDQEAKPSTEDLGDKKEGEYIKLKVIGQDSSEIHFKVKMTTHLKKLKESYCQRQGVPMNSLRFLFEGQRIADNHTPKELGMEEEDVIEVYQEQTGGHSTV
Chain of Tyrosine-protein phosphatase non-receptor type 12 (Q05209 whole entry): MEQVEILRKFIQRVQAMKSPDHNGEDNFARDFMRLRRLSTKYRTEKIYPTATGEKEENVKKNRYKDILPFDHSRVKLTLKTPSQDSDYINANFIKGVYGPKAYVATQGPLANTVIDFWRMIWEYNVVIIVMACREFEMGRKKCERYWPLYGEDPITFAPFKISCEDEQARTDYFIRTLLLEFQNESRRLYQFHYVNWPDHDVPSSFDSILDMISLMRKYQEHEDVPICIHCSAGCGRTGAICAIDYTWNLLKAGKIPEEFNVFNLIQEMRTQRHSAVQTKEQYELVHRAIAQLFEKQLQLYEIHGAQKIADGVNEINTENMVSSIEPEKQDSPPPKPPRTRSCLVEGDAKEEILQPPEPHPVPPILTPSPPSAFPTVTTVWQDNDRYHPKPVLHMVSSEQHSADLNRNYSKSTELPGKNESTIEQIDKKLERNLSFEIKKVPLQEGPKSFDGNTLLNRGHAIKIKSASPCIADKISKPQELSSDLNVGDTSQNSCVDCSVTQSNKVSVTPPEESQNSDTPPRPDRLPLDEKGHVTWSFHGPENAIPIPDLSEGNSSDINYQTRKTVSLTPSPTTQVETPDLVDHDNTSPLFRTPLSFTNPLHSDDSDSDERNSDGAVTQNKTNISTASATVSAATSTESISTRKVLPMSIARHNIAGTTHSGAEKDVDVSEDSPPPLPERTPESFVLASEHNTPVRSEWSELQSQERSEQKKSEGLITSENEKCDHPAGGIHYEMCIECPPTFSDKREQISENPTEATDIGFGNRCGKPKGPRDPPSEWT
Chain of Acyl-homoserine lactone acylase PvdQ (Q9I194 24-193 limits assumed): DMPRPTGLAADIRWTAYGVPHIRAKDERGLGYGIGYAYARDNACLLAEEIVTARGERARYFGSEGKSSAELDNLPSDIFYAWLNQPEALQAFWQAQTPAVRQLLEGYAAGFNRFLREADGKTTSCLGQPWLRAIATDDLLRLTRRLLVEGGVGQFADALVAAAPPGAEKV
Chain of Acyl-homoserine lactone acylase PvdQ (Q9I194 217-762 limits assumed): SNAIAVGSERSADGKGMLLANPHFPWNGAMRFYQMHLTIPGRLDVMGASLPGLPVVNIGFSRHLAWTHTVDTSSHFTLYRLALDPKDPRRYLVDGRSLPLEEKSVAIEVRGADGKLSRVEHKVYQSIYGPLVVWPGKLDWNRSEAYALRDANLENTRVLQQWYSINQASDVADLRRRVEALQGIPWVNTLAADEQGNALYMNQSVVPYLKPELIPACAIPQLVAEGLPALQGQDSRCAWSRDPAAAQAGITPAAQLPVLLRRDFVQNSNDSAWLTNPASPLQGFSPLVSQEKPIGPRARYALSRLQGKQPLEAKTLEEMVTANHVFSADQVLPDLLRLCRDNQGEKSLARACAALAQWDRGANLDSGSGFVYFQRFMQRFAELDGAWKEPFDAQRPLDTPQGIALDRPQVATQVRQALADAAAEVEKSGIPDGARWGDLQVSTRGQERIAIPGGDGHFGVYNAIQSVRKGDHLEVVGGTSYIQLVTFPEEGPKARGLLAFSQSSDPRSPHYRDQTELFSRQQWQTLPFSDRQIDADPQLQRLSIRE
Chain of Luciferin 4-monooxygenase (P08659 whole entry): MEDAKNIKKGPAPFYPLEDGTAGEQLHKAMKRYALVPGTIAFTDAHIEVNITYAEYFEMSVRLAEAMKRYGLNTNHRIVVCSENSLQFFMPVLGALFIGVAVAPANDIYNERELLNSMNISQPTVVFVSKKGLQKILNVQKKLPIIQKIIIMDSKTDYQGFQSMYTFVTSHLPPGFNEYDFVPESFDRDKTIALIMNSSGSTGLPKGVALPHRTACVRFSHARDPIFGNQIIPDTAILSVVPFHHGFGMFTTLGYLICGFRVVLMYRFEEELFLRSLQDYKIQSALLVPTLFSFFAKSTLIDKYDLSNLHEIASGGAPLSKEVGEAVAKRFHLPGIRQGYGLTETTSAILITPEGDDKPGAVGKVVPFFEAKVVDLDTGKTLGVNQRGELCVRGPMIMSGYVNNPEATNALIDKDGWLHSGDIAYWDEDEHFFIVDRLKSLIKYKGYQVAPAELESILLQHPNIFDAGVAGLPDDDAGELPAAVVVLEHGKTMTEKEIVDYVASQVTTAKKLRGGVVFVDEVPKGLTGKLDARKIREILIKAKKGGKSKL

O=C1C=C(c2ccccc2C(F)(F)F)C[C@@H](c2ccc3c(c2)OCO3)C1
AC50 [1]: > 100 µM (inactive)

Oc1ccccc1Cn1c(-c2ccccc2O)nc2ccccc21
EC50 [2]: 24.7 µM (not active) | IC50 (HEK293 [3]): 14.3 µM (not active) | EC50 [4]: 15.6 µM (not active)

Cc1oc(-c2ccccc2Cl)nc1CSCC(=O)N1CCCC1
CC50 [5]: 16 µM (active) | EC50 (HEK293 [6]): < 4 µM (active) | EC50 [7]: > 8 µM (not active) | EC50 (HEK293 [8]): 11.1 µM (not active) | EC50 (HEK293 [9]): > 8 µM (inactive) | EC50 (HEK293 [10]): > 8 µM (not active) | IC50 (Vero [11]): 2.28 µM (active) | CC50 (Vero [12]): > 25 µM (active) | IC50 (cells): 11 µM (active)

CCOC(=O)C1=C(C)N=c2sc(=Cc3ccc(OCC(=O)O)cc3)c(=O)n2C1c1ccc(SC)cc1 (configuration not stated)
IC50 [13]: 2.52 µM (active) | IC50 [14]: 3.14 µM (active) | IC50 [15]: 7.7 µM (active) | IC50 [16]: 5.06 µM (active) | IC50 [17]: 2.01 µM (active) | IC50 [18]: 0.537 µM (active) | IC50 [19]: 0.684 µM (active) | IC50 [20]: 5.14 µM (active) | IC50 [21]: 18.9 µM (active) | IC50 [22]: > 66.6 µM (inactive) | IC50 [23]: 52.8 µM (inactive) | IC50 [24]: 9.68 µM (active) | IC50 [25]: 14.6 µM (active) | IC50 [26]: 16.2 µM (active)
